The values that follow come from the SangsterLogP compilation.

A short description of the series: from Suikov, S.; Kal'nits'kii, M.; Lutsik, O.; Plyushchakova, L.; Bondarenko, A.; Bogza, S.; Popov, A. (2007). Derivatives of 1,2,4-triazolo[4,3-b]pyridazin-6-ylhydrazine as a new training set for ….
For orientation: logP means a log measure of how a compound divides between an organic and an aqueous phase. For the compound `CC(=NN=c1ccc2nncn2[nH]1)c1ccncc1`, the logP amounted to 0.93.
With `CC(=NN=c1ccc2nncn2[nH]1)c1ccccn1` the figure was 1.15; with `CC(=NN=c1ccc2nncn2[nH]1)c1ccc(F)cc1`, 2.02; with `CC(=NN=c1ccc2nncn2[nH]1)c1ccc(C)cc1`, 2.2.
Under `COc1ccccc1C(C)=NN=c1ccc2nncn2[nH]1` stands 1.94.
With `COc1cccc(C(C)=NN=c2ccc3nncn3[nH]2)c1` the figure was 1.97.
In turn, `CC/C(=N/Nc1ccc2nncn2n1)c1ccccc1` yielded a logP of 2.15.
Under `CC(=NN=c1ccc2nncn2[nH]1)c1ccccc1O` stands 1.89.
With `CC(=NN=c1ccc2nncn2[nH]1)c1cccc(O)c1`, the logP is 1.46.
With `COc1cc(C=NN=c2ccc3nncn3[nH]2)cc(OC)c1OC` the figure was 1.53.
Compound `CC(=NN=c1ccc2nncn2[nH]1)c1ccc(O)cc1` came in with a logP of 1.45.
